Experimental data: ChEMBL document CHEMBL5715958 (Mol Cancer Res, 2018)
Calls of active or inactive are those of the source. The rule behind the calls is not given here.

How the values were obtained:
[1] = molecular target: Dual specificity mitogen-activated protein kinase kinase 1 (Homo sapiens) (UniProt Q02750); test: Inhibition of MIB binding to MEK1 in human NCI-H2228 cell lysate at high dose incubated for 1 hr by Western blotting analysis; assay type: subcellular
[2] = molecular target: Dual specificity mitogen-activated protein kinase kinase 2 (Homo sapiens) (UniProt P36507); test: Inhibition of MIB binding to MEK2 in human NCI-H2228 cell lysate at high dose incubated for 1 hr by Western blotting analysis; assay type: subcellular; details: dose 3-3000 µM
[3] = molecular target: Tyrosine-protein kinase receptor UFO (Homo sapiens) (UniProt P30530); test: Inhibition of MIB binding to AXL in human NCI-H2228 cell lysate at high dose incubated for 1 hr by Western blotting analysis; assay type: subcellular; details: dose 3-3000 µM
[4] = molecular target: Dual specificity mitogen-activated protein kinase kinase 1 (Homo sapiens) (UniProt Q02750); test: Inhibition of MIB binding to MEK1 in human NCI-H2228 cells at 3 to 3000 uM incubated for 1 hr by Western blotting analysis; assay type: cell-based; details: dose 3-3000 µM
[5] = molecular target: Dual specificity mitogen-activated protein kinase kinase 2 (Homo sapiens) (UniProt P36507); test: Inhibition of MIB binding to MEK2 in human NCI-H2228 cells at 3 to 3000 uM incubated for 1 hr by Western blotting analysis; assay type: cell-based; details: dose 3-3000 µM
[6] = molecular target: Tyrosine-protein kinase receptor UFO (Homo sapiens) (UniProt P30530); test: Inhibition of MIB binding to AXL in human NCI-H2228 cells at 3 to 3000 uM incubated for 1 hr by Western blotting analysis; assay type: cell-based; details: dose 3-3000 µM
[7] = molecular target: Dual specificity mitogen-activated protein kinase kinase 1 (Homo sapiens) (UniProt Q02750); test: Inhibition of MIB binding to MEK1 in human NCI-H2228 cell lysate at 3 to 3000 uM pre-incubated with MIB followed by compound addition measured after 1 hr by Western blotting analysis; assay type: subcellular; details: dose 3-3000 µM
[8] = molecular target: Dual specificity mitogen-activated protein kinase kinase 2 (Homo sapiens) (UniProt P36507); test: Inhibition of MIB binding to MEK2 in human NCI-H2228 cell lysate at 3 to 3000 uM pre-incubated with MIB followed by compound addition measured after 1 hr by Western blotting analysis; assay type: subcellular; details: dose 3-3000 µM
[9] = molecular target: Tyrosine-protein kinase receptor UFO (Homo sapiens) (UniProt P30530); test: Inhibition of MIB binding to AXL in human NCI-H2228 cell lysate at 3 to 3000 uM pre-incubated with MIB followed by compound addition measured after 1 hr by Western blotting analysis; assay type: subcellular; details: dose 3-3000 µM
Mus musculus [10] = test: Inhibition of MIB binding to MEK1 in mouse kidney at 3 mg/kg, po measured after 2 hr by MIB/MS competitive binding analysis; assay type: functional, organism-based
Mus musculus [11] = test: Inhibition of MIB binding to MEK2 in mouse kidney at 3 mg/kg, po measured after 2 hr by MIB/MS competitive binding analysis; assay type: functional, organism-based
[12] = molecular target: Calcium/calmodulin-dependent protein kinase type II subunit beta (Homo sapiens, UniProt Q13554); test: Inhibition of human CAMK2beta preincubated with compound for 20 mins followed by [33P]ATP addition and measured after 2 hrs by filter binding method
[13] = molecular target: Calcium/calmodulin-dependent protein kinase type II subunit delta (Homo sapiens, UniProt Q13557); test: Inhibition of human CAMK2delta preincubated with compound for 20 mins followed by [33P]ATP addition and measured after 2 hrs by filter binding method
[14] = molecular target: Calcium/calmodulin-dependent protein kinase type II subunit gamma (Homo sapiens, UniProt Q13555); test: Inhibition of human CAMK2gamma preincubated with compound for 20 mins followed by [33P]ATP addition and measured after 2 hrs by filter binding method
RKO = test: Effect on beta-catenin protein level in human RKO cells at 5 uM incubated for 6 hrs by Western blotting analysis; assay type: functional, cell-based
L-M(TK-) = test: Effect on beta-catenin protein level in mouse L-M(TK-) cells at 5 uM incubated for 6 hrs by Western blotting analysis; assay type: functional, cell-based
[15] = molecular target: Cyclin-dependent kinase 4 (Homo sapiens) (UniProt P11802); test: Inhibition of MIB binding to CDK4 in human NCI-H2228 cells at 0.01 to 10 uM incubated for 1 hr by Western blotting analysis; assay type: cell-based; details: dose 0.01-10 µM
[16] = molecular target: Glycogen synthase kinase-3 beta (Homo sapiens) (UniProt P49841); test: Inhibition of MIB binding to GSK3beta in human NCI-H2228 cells at 0.01 to 10 uM incubated for 1 hr by Western blotting analysis; assay type: cell-based; details: dose 0.01-10 µM
[17] = molecular target: Tyrosine-protein kinase Lyn (Homo sapiens) (UniProt P07948); test: Inhibition of MIB binding to LYN in human NCI-H2228 cells at 0.01 to 10 uM incubated for 1 hr by MIB/MS competitive binding analysis; assay type: cell-based; details: dose 0.01-10 µM
[18] = molecular target: Tyrosine-protein kinase Yes (Homo sapiens) (UniProt P07947); test: Inhibition of MIB binding to YES1 in human NCI-H2228 cells at 0.01 to 10 uM incubated for 1 hr by MIB/MS competitive binding analysis; assay type: cell-based; details: dose 0.01-10 µM

Chain of Tyrosine-protein kinase receptor UFO (Homo sapiens) (P30530 whole entry): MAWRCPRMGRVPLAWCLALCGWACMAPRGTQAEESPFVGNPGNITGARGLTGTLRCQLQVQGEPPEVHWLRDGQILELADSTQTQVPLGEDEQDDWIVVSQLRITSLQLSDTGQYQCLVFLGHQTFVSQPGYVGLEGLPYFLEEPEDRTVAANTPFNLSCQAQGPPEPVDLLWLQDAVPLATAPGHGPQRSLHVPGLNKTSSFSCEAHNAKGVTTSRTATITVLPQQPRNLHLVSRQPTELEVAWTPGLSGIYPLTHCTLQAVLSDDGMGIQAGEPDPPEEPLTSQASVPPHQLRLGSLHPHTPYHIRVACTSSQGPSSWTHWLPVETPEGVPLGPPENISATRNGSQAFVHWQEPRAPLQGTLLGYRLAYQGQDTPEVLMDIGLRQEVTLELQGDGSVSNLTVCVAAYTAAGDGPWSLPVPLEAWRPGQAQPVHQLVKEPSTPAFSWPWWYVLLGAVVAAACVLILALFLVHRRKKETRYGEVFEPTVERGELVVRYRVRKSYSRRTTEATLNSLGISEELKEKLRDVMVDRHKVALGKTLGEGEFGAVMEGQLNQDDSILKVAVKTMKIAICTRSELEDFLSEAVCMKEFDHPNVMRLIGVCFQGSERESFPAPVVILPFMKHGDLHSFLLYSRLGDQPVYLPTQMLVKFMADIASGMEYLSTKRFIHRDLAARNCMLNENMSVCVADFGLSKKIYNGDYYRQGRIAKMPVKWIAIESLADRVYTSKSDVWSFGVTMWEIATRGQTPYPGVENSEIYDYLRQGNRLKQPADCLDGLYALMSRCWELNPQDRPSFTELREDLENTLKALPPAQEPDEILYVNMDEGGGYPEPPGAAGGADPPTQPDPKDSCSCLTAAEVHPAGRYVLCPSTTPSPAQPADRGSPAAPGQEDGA
Chain of Dual specificity mitogen-activated protein kinase kinase 1 (Homo sapiens) (Q02750 whole entry): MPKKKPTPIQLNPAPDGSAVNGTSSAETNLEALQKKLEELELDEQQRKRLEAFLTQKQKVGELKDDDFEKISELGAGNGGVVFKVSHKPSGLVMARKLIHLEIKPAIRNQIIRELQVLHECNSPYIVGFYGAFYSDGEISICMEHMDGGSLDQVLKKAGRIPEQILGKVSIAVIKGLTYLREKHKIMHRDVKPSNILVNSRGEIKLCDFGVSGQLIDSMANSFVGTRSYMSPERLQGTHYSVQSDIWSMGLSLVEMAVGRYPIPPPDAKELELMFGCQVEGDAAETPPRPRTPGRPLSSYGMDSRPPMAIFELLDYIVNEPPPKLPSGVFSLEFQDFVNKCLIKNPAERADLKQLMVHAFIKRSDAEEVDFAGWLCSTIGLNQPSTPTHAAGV
Chain of Dual specificity mitogen-activated protein kinase kinase 2 (Homo sapiens) (P36507 whole entry): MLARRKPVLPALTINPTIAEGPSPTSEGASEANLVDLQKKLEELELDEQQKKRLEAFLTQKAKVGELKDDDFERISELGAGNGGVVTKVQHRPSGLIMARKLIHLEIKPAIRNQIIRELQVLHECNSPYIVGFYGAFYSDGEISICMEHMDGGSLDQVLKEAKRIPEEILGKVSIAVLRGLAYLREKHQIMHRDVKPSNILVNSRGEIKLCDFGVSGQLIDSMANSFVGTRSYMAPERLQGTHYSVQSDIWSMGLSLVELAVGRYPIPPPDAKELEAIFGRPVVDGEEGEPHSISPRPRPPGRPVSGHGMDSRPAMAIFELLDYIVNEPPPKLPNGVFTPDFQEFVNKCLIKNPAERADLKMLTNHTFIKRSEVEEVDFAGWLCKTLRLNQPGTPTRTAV
Chain of Calcium/calmodulin-dependent protein kinase type II subunit beta (Q13554 whole entry): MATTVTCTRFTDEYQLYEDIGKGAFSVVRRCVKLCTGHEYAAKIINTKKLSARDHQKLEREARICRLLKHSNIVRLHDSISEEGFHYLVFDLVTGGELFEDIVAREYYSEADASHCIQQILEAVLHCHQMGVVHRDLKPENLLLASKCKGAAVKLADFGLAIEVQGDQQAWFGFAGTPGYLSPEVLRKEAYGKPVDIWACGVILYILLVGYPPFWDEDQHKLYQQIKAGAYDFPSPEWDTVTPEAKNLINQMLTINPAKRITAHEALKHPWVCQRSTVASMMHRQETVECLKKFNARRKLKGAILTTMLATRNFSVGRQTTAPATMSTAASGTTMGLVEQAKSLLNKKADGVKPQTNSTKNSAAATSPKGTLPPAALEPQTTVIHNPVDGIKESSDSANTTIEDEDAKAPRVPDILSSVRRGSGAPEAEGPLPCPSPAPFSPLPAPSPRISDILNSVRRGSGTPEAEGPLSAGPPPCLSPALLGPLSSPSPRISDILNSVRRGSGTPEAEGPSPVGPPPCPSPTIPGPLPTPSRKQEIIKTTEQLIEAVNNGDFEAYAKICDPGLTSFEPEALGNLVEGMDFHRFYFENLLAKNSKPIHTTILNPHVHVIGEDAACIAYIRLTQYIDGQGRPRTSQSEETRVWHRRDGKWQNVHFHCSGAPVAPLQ
Chain of Calcium/calmodulin-dependent protein kinase type II subunit gamma (Q13555 whole entry): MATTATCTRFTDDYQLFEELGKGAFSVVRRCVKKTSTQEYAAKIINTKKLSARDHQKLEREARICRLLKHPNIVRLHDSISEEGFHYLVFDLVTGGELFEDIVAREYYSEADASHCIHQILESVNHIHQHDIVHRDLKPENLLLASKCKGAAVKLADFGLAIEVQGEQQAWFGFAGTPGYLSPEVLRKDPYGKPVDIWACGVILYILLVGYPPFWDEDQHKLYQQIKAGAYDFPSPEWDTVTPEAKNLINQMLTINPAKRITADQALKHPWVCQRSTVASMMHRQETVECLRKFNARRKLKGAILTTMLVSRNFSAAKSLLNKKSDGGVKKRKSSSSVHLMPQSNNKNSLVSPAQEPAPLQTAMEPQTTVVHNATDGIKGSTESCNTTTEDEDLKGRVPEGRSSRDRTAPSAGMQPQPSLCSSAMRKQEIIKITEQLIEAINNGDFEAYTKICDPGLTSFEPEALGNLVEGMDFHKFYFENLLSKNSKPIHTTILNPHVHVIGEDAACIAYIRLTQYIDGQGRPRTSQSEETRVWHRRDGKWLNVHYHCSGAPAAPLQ
Chain of Tyrosine-protein kinase Lyn (Homo sapiens) (P07948 2-512 limits assumed): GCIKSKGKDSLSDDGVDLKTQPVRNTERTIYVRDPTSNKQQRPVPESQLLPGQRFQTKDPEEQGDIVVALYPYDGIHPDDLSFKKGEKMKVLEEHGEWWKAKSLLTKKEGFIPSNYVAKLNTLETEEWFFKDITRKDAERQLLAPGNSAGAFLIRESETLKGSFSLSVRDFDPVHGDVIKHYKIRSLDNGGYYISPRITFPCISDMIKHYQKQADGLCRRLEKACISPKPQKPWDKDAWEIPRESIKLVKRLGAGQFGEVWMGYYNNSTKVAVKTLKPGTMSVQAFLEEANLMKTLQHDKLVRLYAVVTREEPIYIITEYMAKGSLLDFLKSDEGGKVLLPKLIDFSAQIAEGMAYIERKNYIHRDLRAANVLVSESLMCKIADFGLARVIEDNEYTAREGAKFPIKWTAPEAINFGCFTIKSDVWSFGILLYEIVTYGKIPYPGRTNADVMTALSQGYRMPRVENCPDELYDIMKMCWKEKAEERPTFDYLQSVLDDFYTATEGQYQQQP
Chain of Cyclin-dependent kinase 4 (Homo sapiens) (P11802 whole entry): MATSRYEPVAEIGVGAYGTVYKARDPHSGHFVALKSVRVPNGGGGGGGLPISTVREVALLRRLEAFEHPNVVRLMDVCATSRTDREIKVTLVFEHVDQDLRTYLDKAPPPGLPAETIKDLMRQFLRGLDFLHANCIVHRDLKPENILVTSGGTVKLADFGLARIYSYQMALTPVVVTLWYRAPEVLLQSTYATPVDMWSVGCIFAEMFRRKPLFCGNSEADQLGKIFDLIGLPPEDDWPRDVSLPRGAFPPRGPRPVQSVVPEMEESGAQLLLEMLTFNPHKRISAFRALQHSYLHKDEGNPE
Chain of Glycogen synthase kinase-3 beta (Homo sapiens) (P49841 whole entry, looked up): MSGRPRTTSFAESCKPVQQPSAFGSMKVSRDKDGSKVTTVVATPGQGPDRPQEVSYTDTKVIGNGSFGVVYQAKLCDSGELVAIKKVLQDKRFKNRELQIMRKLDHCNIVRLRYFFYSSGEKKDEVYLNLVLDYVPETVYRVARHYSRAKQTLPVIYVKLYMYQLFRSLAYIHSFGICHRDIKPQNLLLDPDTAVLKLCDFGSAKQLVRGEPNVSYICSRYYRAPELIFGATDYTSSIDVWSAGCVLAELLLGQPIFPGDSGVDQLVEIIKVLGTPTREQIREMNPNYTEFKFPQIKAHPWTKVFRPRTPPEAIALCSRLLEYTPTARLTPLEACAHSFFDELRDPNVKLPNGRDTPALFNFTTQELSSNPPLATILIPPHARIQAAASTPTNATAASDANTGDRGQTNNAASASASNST
Chain of Calcium/calmodulin-dependent protein kinase type II subunit delta (Q13557 whole entry): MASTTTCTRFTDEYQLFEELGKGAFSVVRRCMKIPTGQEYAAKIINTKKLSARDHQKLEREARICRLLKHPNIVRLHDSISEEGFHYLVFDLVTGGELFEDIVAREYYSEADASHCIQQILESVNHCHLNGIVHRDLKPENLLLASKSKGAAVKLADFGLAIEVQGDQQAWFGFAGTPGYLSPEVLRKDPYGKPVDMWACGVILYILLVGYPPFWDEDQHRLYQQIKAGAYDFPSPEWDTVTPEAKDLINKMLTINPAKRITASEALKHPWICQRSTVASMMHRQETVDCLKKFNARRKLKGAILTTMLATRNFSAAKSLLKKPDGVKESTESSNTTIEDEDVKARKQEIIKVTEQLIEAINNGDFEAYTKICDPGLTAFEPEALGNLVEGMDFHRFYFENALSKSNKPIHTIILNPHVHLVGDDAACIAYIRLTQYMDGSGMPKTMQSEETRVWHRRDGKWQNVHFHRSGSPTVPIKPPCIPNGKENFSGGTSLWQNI

Compound: CC(=O)Nc1cccc(-n2c(=O)n(C3CC3)c(=O)c3c(Nc4ccc(I)cc4F)n(C)c(=O)c(C)c32)c1
- inhibition [1]: Active
- inhibition [2]: Active
- inhibition [3]: inactive
- inhibition [4]: Active
- inhibition [5]: Active
- inhibition [6]: inactive
- inhibition [7]: Active
- inhibition [8]: Active
- inhibition [9]: inactive
- inhibition (Mus musculus [10]): Active
- inhibition (Mus musculus [11]): Active

Compound: CCN1CCN(Cc2ccc(Nc3ncc(F)c(-c4cc(F)c5nc(C)n(C(C)C)c5c4)n3)nc2)CC1 [ABEMACICLIB]
- IC50 [12]: 3.5 nM
- IC50 [13]: 2.6 nM
- IC50 [14]: 52 nM

Compound: CC(=O)c1c(C)c2cnc(Nc3ccc(N4CCNCC4)cn3)nc2n(C2CCCC2)c1=O [PALBOCICLIB]
- IC50 [12]: 1600 nM
- Activity (RKO): inactive
- Activity (L-M(TK-)): inactive

Compound: CN(C)C(=O)c1cc2cnc(Nc3ccc(N4CCNCC4)cn3)nc2n1C1CCCC1
- inhibition [15]: Active
- inhibition [16]: inactive

Compound: Cc1nc(Nc2ncc(C(=O)Nc3c(C)cccc3Cl)s2)cc(N2CCN(CCO)CC2)n1
- inhibition [17]: Active
- inhibition [18]: Active
